This note sets out measurements from ChEMBL document CHEMBL1158324, “Isolation, structure elucidation, and biological activity of the steroid oligoglycosides and polyhydroxysteroids from the Antarctic starfish Acodontaster conspicuus” (J Nat Prod, 1997).

Assay type in all cases: functional, organism-based
For test [1], the system named is Acodontaster conspicuus. Put plainly: Antimicrobial activity against Acodontaster conspicuus McM32.2 at 20 degC after 48 hrs by paper disk method.
Test [2] relates to Acodontaster conspicuus. The test can be described thus: Antimicrobial activity against Acodontaster conspicuus McM18.1 at 20 degC after 48 hrs by paper disk method.
In test [3] the test system is Acodontaster conspicuus. The test can be described thus: Antimicrobial activity against Acodontaster conspicuus McM11.5 at 20 degC after 72 hrs by paper disk method.
Test [4] relates to Acodontaster conspicuus. The test can be described thus: Antimicrobial activity against Acodontaster conspicuus McM13.3 at 20 degC after 48 hrs by paper disk method.

Activity calls are given as the source filed them. The rule behind the calls is not given here.

Consider `C=C(CC[C@@H](C)[C@H]1C[C@@H](O)[C@@H]2[C@]1(C)CC[C@@H]1[C@@]3(C)CC[C@H](O)[C@H](O)[C@@H]3[C@@H](O)C[C@]12O)C(C)CO[C@@H]1OC[C@@H](O)[C@H](O)[C@H]1O[C@@H]1OC[C@@H](O)[C@H](O)[C@H]1OC` (some centres not stated), for which, in the test on Acodontaster conspicuus [1], the outcome was Active.
On to `CC(C)C[C@@H]1O[C@H]1[C@@](C)(O)[C@H]1CC[C@H]2[C@@H]3C[C@H](O[C@@H]4O[C@H](C)[C@@H](O)[C@H](O[C@@H]5OC[C@@H](O[C@@H]6O[C@H](CO)[C@H](O)[C@H](O)[C@H]6O[C@@H]6O[C@H](C)[C@@H](O)[C@H](O)[C@H]6O)[C@H](O)[C@H]5O[C@H]5O[C@@H](C)[C@H](O)[C@@H](O)[C@@H]5O)[C@H]4O)[C@H]4C[C@@H](OS(=O)(=O)O)CC[C@]4(C)C3=CC[C@]12C`, for which the outcome in the test with Acodontaster conspicuus [2], in the test on Acodontaster conspicuus [3], in the test with Acodontaster conspicuus [4] and in the test on Acodontaster conspicuus [1] was inactive.
As for `CC(C)CC(=O)C[C@@](C)(O)[C@H]1CC[C@H]2[C@@H]3C[C@H](O[C@@H]4O[C@H](C)[C@@H](O)[C@H](O[C@@H]5OC[C@@H](O[C@@H]6O[C@H](CO)[C@H](O)[C@H](O)[C@H]6O[C@@H]6O[C@H](C)[C@@H](O)[C@H](O)[C@H]6O)[C@H](O)[C@H]5O[C@H]5O[C@@H](C)[C@H](O)[C@@H](O)[C@@H]5O)[C@H]4O)[C@H]4C[C@@H](OS(=O)(=O)O)CC[C@]4(C)C3=CC[C@@]21C`, the result in the test with Acodontaster conspicuus [2], in the test on Acodontaster conspicuus [3], with Acodontaster conspicuus [4] and with Acodontaster conspicuus [1] was inactive.
`CC(C)[C@@H](O)/C=C/[C@@H](C)[C@H]1C[C@@H](O)[C@@H]2[C@]1(C)CC[C@H]1[C@@]2(O)C[C@H](O)C2C[C@@H](O)CC[C@@]21C` (some centres not stated): the outcome in the test on Acodontaster conspicuus [4] and in the test on Acodontaster conspicuus [1] was Active.
Consider `CO[C@H]1[C@H](O[C@H]2[C@H](OC[C@@H](C)[C@H](C)/C=C/[C@@H](C)[C@H]3C[C@@H](O)[C@@H]4[C@]3(C)CC[C@@H]3[C@@]5(C)CC[C@H](O)[C@H](O)[C@@H]5[C@@H](O)C[C@]34O)OC[C@@H](O)[C@@H]2O)OC[C@@H](O)[C@@H]1O`, for which the result in the test with Acodontaster conspicuus [4] and in the test on Acodontaster conspicuus [1] was Active.
As to `CO[C@H]1[C@H](O[C@H]2[C@H](OCC[C@H](CC[C@@H](C)[C@H]3C[C@@H](O)[C@@H]4[C@]3(C)CC[C@@H]3[C@@]5(C)CC[C@H](O)[C@H](O)[C@@H]5[C@@H](O)C[C@]34O)C(C)C)OC[C@@H](O)[C@@H]2O)OC[C@@H](O)[C@@H]1O`, the result in the test on Acodontaster conspicuus [4] and in the test with Acodontaster conspicuus [1] was Active.
As for `CC(C)[C@@H](CCO[C@@H]1OC[C@@H](O)[C@H](O)[C@H]1O[C@@H]1OC[C@@H](O)[C@H](O)[C@H]1O)CC[C@@H](C)[C@H]1C[C@@H](O)[C@@H]2[C@]1(C)CC[C@@H]1[C@@]3(C)CC[C@H](O)[C@H](O)[C@@H]3[C@@H](O)C[C@]12O`, the outcome in the test on Acodontaster conspicuus [4] and with Acodontaster conspicuus [1] was Active.
For the molecule `C[C@H](/C=C/[C@@H](C)[C@H]1C[C@@H](O)C2=C3C[C@H](O)C4C[C@@H](O)CC[C@]4(C)[C@H]3CC[C@@]21C)[C@H](C)CO` (some centres not stated), the result in the test on Acodontaster conspicuus [4] and with Acodontaster conspicuus [1] was Active.
In the case of `CC(/C=C/[C@@H](C)[C@H]1C[C@@H](O)C2=C3C[C@H](O)C4C[C@@H](O)CC[C@]4(C)[C@H]3CC[C@@]21C)CO` (some centres not stated), the result with Acodontaster conspicuus [4] was Active.
For the molecule `CC(C)[C@@H](C)C(=O)C[C@@](C)(O)[C@H]1CC[C@H]2[C@@H]3C[C@H](O[C@@H]4O[C@H](C)[C@@H](O)[C@H](O[C@@H]5OC[C@@H](O[C@@H]6O[C@H](CO)[C@H](O)[C@H](O)[C@H]6O[C@@H]6O[C@H](C)[C@@H](O)[C@H](O)[C@H]6O)[C@H](O)[C@H]5O[C@H]5O[C@@H](C)[C@H](O)[C@@H](O)[C@@H]5O)[C@H]4O)[C@H]4C[C@@H](OS(=O)(=O)O)CC[C@]4(C)C3=CC[C@@]21C`, the outcome in the test on Acodontaster conspicuus [2], in the test with Acodontaster conspicuus [3], with Acodontaster conspicuus [4] and in the test with Acodontaster conspicuus [1] was inactive.
For the molecule `CC(C)/C(=C/CO[C@@H]1OC[C@@H](O)[C@H](O)[C@H]1O)CC[C@@H](C)[C@H]1C[C@@H](O)C2=C3C[C@H](O)[C@H]4C[C@@H](O)CC[C@]4(C)[C@H]3CC[C@@]21C`, the outcome with Acodontaster conspicuus [4] and in the test on Acodontaster conspicuus [1] was Active.
Turning to `CO[C@H]1[C@H](O[C@H]2[C@H](OC[C@@H](C)[C@H](C)/C=C/[C@@H](C)[C@H]3C[C@@H](O)C4=C5C[C@H](O)[C@H]6C[C@@H](O)CC[C@]6(C)[C@H]5CC[C@@]43C)OC[C@@H](O)[C@@H]2O)OC[C@@H](O)[C@@H]1O`, in the test on Acodontaster conspicuus [3], the result was Active.
